This is an account of results in patent publication US11224633B2, “Kit for treating sepsis and/or any systemic (SIRS) or damaging cellular hyperinflammation” (priority 2015, dated 2022).

The conditions of series [1]: in vivo; cited from earlier work.
Series [2] has as its system male IOPS Han Ico Wistar rats, septic shock by LPS Salmonella typhimurium.
The mark [3] stands for this setting: venous blood at euthanasia H 6h30, individual rats, selenite alone = group 2 perfusion.
Where [4] appears, read: venous blood gases at euthanasia H 6h30, individual rats, selenite alone = group 2 perfusion.

In the case of `[Se]` [selenium], in series [1], the “NOAEL No Adverse Effect Level determined in nutrition, per kg” value is 11 μg/kg per day.

As for `O=[Se](O)O` [sodium selenite], in series [2] (blood at euthanasia H 6h30, individual rats, selenite alone = group 2 perfusion), the “ScvO2 or SaO2” value was determined as 8.9. Further, the Creat in series [2] (creatinine at H 6h30, individual rats, selenite alone = group 2 perfusion) amounted to 156. In series [2] (glycemia at H 6h30, individual rats, selenite alone = group 2 perfusion), the Gly was found to be 0.27. For the same molecule, the survival of animals entry in series [2] (group 4: control B2 then Na2SeO3 alone in 3 flash injections every 10 min, LPS 50 mg/kg) is “do not survive”. Further, the Lactate level in series [2] (individual rats, LPS 50 mg/kg, sample at H 6h30, selenite alone = group 2, 0.3 mg/kg Se perfused over 30 min, Sel-P over 30 min, combination = Sel-P then 3 flash injections of selenite 0.1 mg/kg) is on record as 8.75 mmol/L. Also, in series [2] (setting [3]), the “CO3H—” value is recorded as 19.6 and the Venous lactate is recorded as 8.75 mmol/L. In series [2] (setting [4]), this molecule returned a PCO2 of 97 mmHg, a PaO2 of 16 mmHg and a pH of 6.906.
